# Where two headings read alike, the source gives them in different places.
# Legend:
# [1] = tested on: mouse behavior; experiment: SmartCube system behavioral signature in mice; format: in vivo
# Text: To confirm that compound 018 and Compound 019 has antidepressant effects, the SmartCube® system (Psychogenics, Inc., Paramus, NJ) was used. This system uses features derived from mouse behavioral data to classify compounds for their ability to treat neuro-psychiatric symptoms by comparing the features to a proprietary reference database of behavioral feature sets that are linked to classes of marketed drugs known to treat neuro-psychiatric symptoms. Thus the system can be used as a model to identify the psychiatric effect of a compound by comparing the effects of the compounds against drugs with known validated effects. By comparing the responses of animals to known drugs, the test drug can be categorized according to its function; for example, hallucinogen, anxiogenic, analgesic, cognitive enhancer, psychostimulant, mood stabilizer, high dose anti-psychotic, anti-psychotic, sedative/hypnotic, anxiolytic, high dose antidepressant, antidepressant.
# Once all features are extracted from the raw data through an automated pipeline, proprietary bioinformatics algorithms are used to decorrelate groups of features and find the combination of values that best separate different groups of interest. For each compound, at each dose, they system provides a probability that the drug is active and breaks down such putative activity into the different classes of interest.
# Mice were tested in the SmartCube® system where they were exposed to a sequence of challenges during the 45-minute test period. The cubes were cleaned between each run.
# For class and subclass analysis, a reference data set has been built from hundreds of drug doses in multiple drug classes plus a control group. Each reference drug was tested at multiple doses appropriate for that drug in mice. The best performing classifiers were chosen from our evaluation tests and two separate types of classifiers were built that make independent predictions at drug class and subclass levels. The Class consists of drugs that are currently in the market or have been clinically validated for that specific indication. The sub-class consists of both marketed drugs and other compounds that have been mechanistically validated and is a larger set than the Class.
# Data was processed using proprietary computer vision and data mining algorithms and the results were compared to signatures of the reference compounds in our database. Multiple analyses of the data was performed to quantitatively produce independent predictions of drug class, and drug subclass. The behavioral signatures of the test drug were evaluated using these classifiers to predict potential therapeutic utility.
# [2] = Hepatocyte metabolism (stability in cryopreserved hepatocytes); settings: human hepatocytes
# Description: (§4) A 2.5 uL aliquot of 100 μM test compound was incubated with 247.5 uL of cryopreserved hepatocytes suspended in serum-free incubation medium at 1 million viable cells/mL. The mixture was incubated at 37° C. and shaken at 500 rpm for the designated time points (0.5, 5, 10, 15, 30, 60, 90, or 120 min). At each time point, 25 uL aliquot of incubation mixture was transferred to 125 uL of cold acetonitrile containing internal standard, followed by centrifugation for 30 min at 3,220 g. 100 uL of supernatant was mixed with 100 uL of distilled water for analysis by LC-MS/MS. Peak area ratios were determined from extracted ion chromatograms and percent recovery was calculated.
# [3] = human, 1 µM
# Description: as §4
# [4] = target: PDE4A1A (Homo sapiens (Human), UniProt P27815); experiment: PDE4 inhibition assay (fluorescence polarization), PDE4A1A; format: biochemical; settings: 10 μM
# Description: (§1) 100 μM dilutions of the test compounds were prepared in assay buffer (10% DMSO concentration) and 5 μl of the dilution was added to a 50 μl reaction so that the final concentration of DMSO is 1% in all of reactions. The enzymatic reactions were conducted at room temperature for 60 minutes in a 50 μl mixture containing PDE assay buffer, 100 nM FAM-cAMP, a PDE enzyme (Table 2.3.1) and the test compound (Section 2.2). After the enzymatic reaction, 100 μl of a binding solution (1:100 dilution of the binding agent with the binding agent diluent) was added to each reaction and the reaction was performed at room temperature for 60 minutes. Fluorescence intensity was measured at an excitation of 485 nm and an emission of 528 nm using a Tecan Infinite M1000 microplate reader.
# (§2) • 1) Dilute 20 μM FAM-Cyclic-3′, 5′-AMP stock 100-fold with PDE buffer to make a 200 nM solution. • 2) Add 25 μl of FAM-Cyclic-3′,5′-AMP (200 nM) to each well designated “Positive Control”, “Test Inhibitor”, and “Substrate Control”. • 3) Add 20 μl of PDE assay buffer to each well designated “Substrate Control” and 45 μl of PDE assay buffer to each well designated “Blank”. • 4) Add 5 μl of inhibitor solution to each well designated “Test Inhibitor”. For the wells labeled “Positive Control”, “Substrate Control” and “Blank”, add 5 μl of the same solution without inhibitor (inhibitor buffer). • 5) Thaw PDE on ice. Upon first thaw, briefly spin tube containing enzyme to recover the full contents of the tube. • 6) Dilute PDE4 in PDE buffer to 7.5 pg/μl (0.15 ng/reaction)*. Initiate reaction by adding 20 µl of PDE4 (7.5 pg/μl) to the wells designated “Positive Control” and “Test Inhibitor.” • 7) Incubate at room temperature for 1 hour.
# (§3) • 1) Mix binding agent thoroughly and dilute binding agent 1:100 with binding agent diluent. • 2) Add 100 μl diluted binding agent to each microwell. Incubate at room temperature for 1 hour with slow shaking. • 3) Read the fluorescent polarization of the sample in a microtiter-plate reader equipped for the measurement of fluorescence polarization, capable of excitation at wavelengths ranging from 485±5 nm and detection of emitted light ranging from 528±10 nm. Blank value is subtracted from all other values. • 4) Data Analysis: PDE activity assays were performed in duplicate at each concentration. Fluorescence intensity is converted to fluorescence polarization using the Tecan Magellan6 software. The fluorescence polarization data were analyzed using the computer software, Graphpad Prism. The fluorescence polarization (FPt) in absence of the compound in each data set was defined as 100% activity. In the absence of PDE and the compound, the value of fluorescent polarization (FPb) in each data set was defined as 0% activity. The percent activity in the presence of the compound was calculated according to the following equation: % activity=(FP−FPb)/(FPt−FPb)×100%, where FP=the fluorescence polarization in the presence of the compound. The values of % activity versus a series of compound concentrations were then plotted using non-linear regression analysis of sigmoidal dose-response curve generated with the equation Y=B+(T−B)/1+10^(LogEC50−X)×Hill Slope), where Y=percent activity, B=minimum percent activity, T=maximum percent activity, X=logarithm of compound and Hill Slope=slope factor or Hill coefficient. The IC50 value was determined by the concentration causing a half-maximal percent activity.
# [5] = in vivo; settings: beagle, dog
# Description: (§5) HPLC Instrument: Shimsadzu (DGU-20A5R, Serial No: L20705621435 IX; LC-30AD Serial No: L20555611905 AE and L20555611816 AE; SIL-L30AC, Serial No: L20565605499 AE; Rack Changer II Serial No. L20585601125 SS; CTO20A: Serial No. L20205620413 CD; CBM-20A: Serial No. L20235636200 CD) • MS: AB API 5500 LC/MS/MS instrument (Serial No. EF221221812) • Column: Phenomenex Synergi 2.5 μm Polar-RP 100A. (50×3 mm) • Mobile Phase: (A) 5% Acetonitrile in Water (0.1% Formic acid); (B) 95% Acetonitrile in Water (0.1% Formic acid) • Samples: 50 μL of plasma sample+5 μL of blank solution+200 μL of acetonitrile for PPE (protein precipitation extraction).
# (§6) The desired serial concentrations of working solutions were achieved by diluting stock solution of analyte with 50% acetonitrile in water solution. 5 μL of working solutions (5, 10, 20, 50, 100, 500, 1000, 5000, 10000 ng/mL) were added to 50 μL of the blank Beagle Dog plasma to achieve calibration standards of 0.5˜1000 ng/mL (0.5, 1, 2, 5, 10, 50, 100, 500, 1000 ng/mL) in a total volume of 55 μL. Five quality control samples at 1 ng/mL, 2 ng/mL, 5 ng/mL, 50 ng/mL and 800 ng/mL for plasma were prepared independently of those used for the calibration curves. These QC samples were prepared on the day of analysis in the same way as calibration standards.
# (§7) 55 μL standards, 55 μL QC samples and 55 μL unknown samples 50 μL plasma with 5 μL blank solution) were added to 200 μL of acetonitrile containing IS mixture for precipitating protein respectively. Then the samples were vortexed for 30 s. After centrifugation at 4 degree Celsius, 3900 rpm for 15 min, the supernatant was diluted 3 times with water.
# [6] = target: PDE4B2 (Homo sapiens (Human), UniProt Q07343); experiment: PDE4 inhibition assay (fluorescence polarization), PDE4B2; format: biochemical
# Description: as §1, §2, §3
# [7] = target: PDE4C1 (Homo sapiens (Human), UniProt Q08493); experiment: PDE4 inhibition assay (fluorescence polarization), PDE4C1; format: biochemical; settings: 10 μM
# Description: as §1, §2, §3
# [8] = dog, in vivo
# Description: as §5, §6, §7
# [9] = in vitro; settings: human hepatocytes
# Description: as §4
# [10] = target: PDE4D2 (Homo sapiens (Human), UniProt Q08499); experiment: PDE4 inhibition assay (fluorescence polarization), PDE4D2; format: biochemical; settings: 10 μM
# Description: as §1, §2, §3
# [11] = target: SERT (Homo sapiens (Human), UniProt P31645); experiment: SERT inhibition assay (Neurotransmitter Transporter fluorescence uptake, stable 5HTT HEK293 cells); format: cell-based; settings: n=6 ± SD
# Description: SERT inhibition was measured using a Neruotransmitter Transportation Fluorescence assay. Briefly, stable 5HTT HEK293 cells were prepared in a 384 microwell plate (20,000 cells per 20 μL well). Compounds were prepared by in assay buffer (20 mM HEPES in HBSS, 0.1% BSA) at a top concentration of 1 μM. 10 doses of test compound (3-fold serial dilution) were added to the plated cells and incubated for 30 minutes at 37° C. 25 μL of dye solution (Molecular Devices Neurotransmitter Transporter Uptake Assay Kit) was added per well and incubated for 30 minutes at 37° C.
# Chain of PDE4C1 (Q08493 whole entry): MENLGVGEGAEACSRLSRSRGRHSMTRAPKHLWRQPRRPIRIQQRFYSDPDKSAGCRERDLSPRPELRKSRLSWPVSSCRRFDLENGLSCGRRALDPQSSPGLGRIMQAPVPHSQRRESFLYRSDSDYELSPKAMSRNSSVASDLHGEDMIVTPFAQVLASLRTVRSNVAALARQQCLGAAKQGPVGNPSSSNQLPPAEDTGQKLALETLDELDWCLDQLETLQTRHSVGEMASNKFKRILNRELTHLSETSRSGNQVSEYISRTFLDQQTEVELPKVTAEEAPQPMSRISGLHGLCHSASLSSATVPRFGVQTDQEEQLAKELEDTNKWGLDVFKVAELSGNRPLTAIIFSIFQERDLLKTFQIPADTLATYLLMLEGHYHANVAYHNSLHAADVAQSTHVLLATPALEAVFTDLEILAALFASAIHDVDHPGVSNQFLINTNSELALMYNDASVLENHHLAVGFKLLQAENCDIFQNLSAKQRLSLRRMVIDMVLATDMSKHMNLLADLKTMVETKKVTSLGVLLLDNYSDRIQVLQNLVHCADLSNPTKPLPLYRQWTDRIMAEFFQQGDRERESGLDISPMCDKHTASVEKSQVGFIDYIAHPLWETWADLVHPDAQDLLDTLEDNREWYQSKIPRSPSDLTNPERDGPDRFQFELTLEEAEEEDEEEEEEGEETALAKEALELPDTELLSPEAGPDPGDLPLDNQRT
# Chain of PDE4D2 (Q08499 303-809): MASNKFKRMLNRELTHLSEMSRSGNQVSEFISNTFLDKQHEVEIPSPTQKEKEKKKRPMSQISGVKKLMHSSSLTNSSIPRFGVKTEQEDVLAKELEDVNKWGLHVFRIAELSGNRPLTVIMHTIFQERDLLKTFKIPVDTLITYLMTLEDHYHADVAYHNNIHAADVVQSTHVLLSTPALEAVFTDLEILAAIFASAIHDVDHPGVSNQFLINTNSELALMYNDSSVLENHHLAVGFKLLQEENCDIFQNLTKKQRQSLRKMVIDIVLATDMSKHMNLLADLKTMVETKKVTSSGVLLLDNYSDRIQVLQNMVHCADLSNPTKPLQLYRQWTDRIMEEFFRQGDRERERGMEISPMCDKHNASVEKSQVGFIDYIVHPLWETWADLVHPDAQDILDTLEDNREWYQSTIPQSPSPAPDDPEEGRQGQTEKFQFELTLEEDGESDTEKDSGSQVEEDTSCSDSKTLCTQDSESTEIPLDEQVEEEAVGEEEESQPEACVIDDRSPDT
# Chain of PDE4A1A (P27815 other isoform, or with tags, fused parts or gaps): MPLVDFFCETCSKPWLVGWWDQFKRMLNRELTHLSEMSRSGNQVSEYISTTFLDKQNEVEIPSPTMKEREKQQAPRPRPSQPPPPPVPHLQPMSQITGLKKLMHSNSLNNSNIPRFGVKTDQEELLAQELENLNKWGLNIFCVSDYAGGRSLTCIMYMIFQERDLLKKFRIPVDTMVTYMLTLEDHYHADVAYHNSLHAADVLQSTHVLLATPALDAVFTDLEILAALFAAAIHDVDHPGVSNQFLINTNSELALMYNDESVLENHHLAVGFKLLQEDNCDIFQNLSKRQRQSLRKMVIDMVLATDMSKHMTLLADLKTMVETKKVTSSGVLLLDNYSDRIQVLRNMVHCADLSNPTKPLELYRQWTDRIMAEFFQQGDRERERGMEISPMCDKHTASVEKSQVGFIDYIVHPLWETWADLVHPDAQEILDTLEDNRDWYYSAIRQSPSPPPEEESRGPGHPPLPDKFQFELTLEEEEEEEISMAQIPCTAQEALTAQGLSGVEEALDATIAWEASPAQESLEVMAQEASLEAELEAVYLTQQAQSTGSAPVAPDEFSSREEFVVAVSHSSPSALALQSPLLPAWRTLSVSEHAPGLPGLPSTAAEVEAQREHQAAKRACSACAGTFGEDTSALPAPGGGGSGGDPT
# Chain of PDE4B2 (Q07343 other isoform, or with tags, fused parts or gaps): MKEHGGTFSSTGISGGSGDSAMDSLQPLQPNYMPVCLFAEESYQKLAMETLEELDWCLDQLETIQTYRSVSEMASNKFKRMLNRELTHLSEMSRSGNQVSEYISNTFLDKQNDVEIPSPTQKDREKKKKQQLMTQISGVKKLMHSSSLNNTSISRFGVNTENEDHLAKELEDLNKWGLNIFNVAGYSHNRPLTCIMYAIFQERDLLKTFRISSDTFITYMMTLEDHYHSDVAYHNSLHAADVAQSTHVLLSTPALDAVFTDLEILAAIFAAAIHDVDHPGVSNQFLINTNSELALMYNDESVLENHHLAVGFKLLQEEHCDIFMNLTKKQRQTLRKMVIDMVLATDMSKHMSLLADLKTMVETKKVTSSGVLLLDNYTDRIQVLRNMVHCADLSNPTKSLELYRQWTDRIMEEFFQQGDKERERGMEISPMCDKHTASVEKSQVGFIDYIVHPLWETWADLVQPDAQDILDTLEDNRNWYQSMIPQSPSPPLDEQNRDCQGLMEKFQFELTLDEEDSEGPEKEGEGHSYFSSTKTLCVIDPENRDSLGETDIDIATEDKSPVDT
smiles,measurement,setting,value
"COc1ccc([C@@]23CC[C@H](O)C[C@@H]2N(C)CC3)cc1OC [Compound 019, (3aS,6S,7aS)-3a-(3,4-dimethoxyphenyl)-1-methyloctahydro-1H-indol-6-ol]",behavioral activity (in words),"[1]; mice, 3 mg/kg",low behaviorally activity
same,"antidepressant signature, subclass analysis","[1]; mice, 100 mg/kg",a mix of SSRI and SNRI
same,signature in class and subclass,"[1]; mice, 10, 30 and 100 mg/kg",mixed antidepressant and psychostimulant-like signatures
same,Extraction Ratio,[2],<0.10
same,t1/2,[2],>2 h
same,% QH,[3],<10%
same,CLHB,[3],<2 mL/min/kg
same,PDE4A1A % INH @ 10 μM,[4],4%
same,inhibition at 10 µM,[4]; read-out: PDE4A1A % INH @ 10 μM,≤ 5%
same,AUC(0-inf),"[5]; iv, 2 mg/kg",3140 ng·h/mL
same,AUC(0-t),"[5]; iv, 2 mg/kg",3120 ng·h/mL
same,C0,"[5]; iv, 2 mg/kg",1530 ng/mL
same,MRT inf,"[5]; iv, 2 mg/kg",3.86 h
same,half-life,"[5]; iv, 2 mg/kg",3.38 h
same,AUC(0-inf),"[5]; po, 10 mg/kg",14800 ng·h/mL
same,AUC(0-t),"[5]; po, 10 mg/kg",14700 ng·h/mL
same,Cmax,"[5]; po, 10 mg/kg",2550 ng/mL
same,MRT inf,"[5]; po, 10 mg/kg",4.85 h
same,Tmax,"[5]; po, 10 mg/kg",0.83 h
same,half-life,"[5]; po, 10 mg/kg",3.33 h
same,PDE4B2 % INH @ 10 μM,[6],0%
same,PDE4B2 % INH @ 10 μM,[6]; listed as Compound 19,no more than 5%
same,PDE4C1 % INH @ 10 μM,[7],3%
same,inhibition at 10 µM,[7]; read-out: PDE4C1 % INH @ 10 μM,≤ 5%
same,AUC_% Extrap_obs,"[8]; beagle, iv, 2 mg/kg",0.52%
same,AUClast/D,"[8]; beagle, iv, 2 mg/kg",1560
same,Cl_obs,"[8]; beagle, iv, 2 mg/kg",10.82 mL/min/kg
same,AUC_% Extrap_obs,"[8]; beagle, po, 10 mg/kg",0.64%
same,AUClast/D,"[8]; beagle, po, 10 mg/kg",1473.2
same,F,"[8]; beagle, po, 10 mg/kg",94.6%
same,half-life compared to Compound 018,[8]; iv,about three times greater
same,CLint scaled at 1 µM,[9],< 2 mL/min/kg
same,half-life at 1 µM,[9],> 2 h
same,hepatocyte CLint at 1 µM,[9],< 1 µL/min/1e6 cells
same,PDE4D2 %INH @ 10 μM,[10],3%
same,inhibition at 10 µM,[10]; read-out: PDE4D2 %INH @ 10 μM,≤ 5%
same,IC50,[11],10.6 ± 10.1 nM
